The record followed here is US20040102511A1, “Substituted pyrrole derivatives” (priority 2002, published 2004).

Where a name gives a salt, the structure may show the parent alone.

The target in the assay is T1, HMG-CoA reductase (Rattus norvegicus, UniProt P51639).
T1 construct: were preincubated with liver microsomes at 37° C. for 30 minutes; from tissue
T1 sequence (P51639 1-887): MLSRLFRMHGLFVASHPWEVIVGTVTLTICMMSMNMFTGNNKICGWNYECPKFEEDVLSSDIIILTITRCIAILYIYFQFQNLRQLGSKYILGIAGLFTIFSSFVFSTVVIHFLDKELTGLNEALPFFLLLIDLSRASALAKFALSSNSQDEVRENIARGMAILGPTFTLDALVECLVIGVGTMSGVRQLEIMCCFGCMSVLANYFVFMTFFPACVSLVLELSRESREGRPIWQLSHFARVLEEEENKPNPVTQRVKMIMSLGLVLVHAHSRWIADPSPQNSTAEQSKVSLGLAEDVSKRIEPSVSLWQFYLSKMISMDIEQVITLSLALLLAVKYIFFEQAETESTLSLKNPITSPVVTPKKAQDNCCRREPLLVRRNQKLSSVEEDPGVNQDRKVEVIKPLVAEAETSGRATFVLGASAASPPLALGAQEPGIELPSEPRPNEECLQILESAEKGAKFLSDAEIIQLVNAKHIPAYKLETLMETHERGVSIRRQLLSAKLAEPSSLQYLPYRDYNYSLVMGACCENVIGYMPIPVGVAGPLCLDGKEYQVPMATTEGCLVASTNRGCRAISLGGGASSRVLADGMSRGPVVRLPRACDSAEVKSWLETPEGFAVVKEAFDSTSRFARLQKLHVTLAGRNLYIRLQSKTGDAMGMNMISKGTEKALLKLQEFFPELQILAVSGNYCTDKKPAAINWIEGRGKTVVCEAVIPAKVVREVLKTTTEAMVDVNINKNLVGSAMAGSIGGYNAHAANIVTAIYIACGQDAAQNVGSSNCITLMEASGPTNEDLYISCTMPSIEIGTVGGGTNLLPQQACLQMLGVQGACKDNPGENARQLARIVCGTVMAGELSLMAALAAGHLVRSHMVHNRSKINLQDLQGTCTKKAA
Nature of the assay: in-vitro HMG-CoA reductase enzyme assay (liver microsomes, [14C] HMG-CoA). In kind it is biochemical. Conditions: 2.5 μM [14C] HMG-CoA as substrate, 37° C. for 15 minutes; compounds preincubated with liver microsomes at 37° C. for 30 minutes. How it is done:
HMG-CoA reductase is a rate-limiting enzyme in the cholesterol biosynthesis, catalyzing the following reaction.
[^14C] HMG-CoA+2NADPH+2H^+→[^14C] mevanolate+CoA+2NADP^+ microsomes,
HMG-CoA as a substrate. The reaction was carried out in the presence of 100 mM KH2PO4, 20 mM G-6-P, 2.5 mM NADPH, 10 mM EDTA, 5 mM DTT and […] G-6-P dehydrogenase, at 37° C. for 15 minutes and quantitating [^14C] mevalonate as an end product.
(Microsomes from liver hold many membrane-bound enzymes, among them those of drug oxidation.)

On to `CC(C)c1c(C(=O)Nc2ccccc2F)c(-c2ccccc2)c(-c2ccc(F)cc2)n1CC[C@@H](O)C[C@@H](O)CC(=O)O` [Compound No. 2, (3R,5R)-7-[2-(4-Fluorophenyl)-5-isopropyl-3-phenyl-4-[(2-fluorophenylamino)carbonyl]-pyrrol-1-yl]-3,5-dihydroxy-1-heptanoic acid calcium salt], for which the IC50 (as a rule, the concentration at which inhibition is half-maximal) was 0.0177 nM.
With `CC(C)c1c(C(=O)Nc2ccccc2)c(-c2ccccc2)c(-c2ccc(F)cc2F)n1CC[C@@H](O)C[C@@H](O)CC(=O)O` [Compound No. 12, (3R,5R)-7-[2-(2,4-Difluorophenyl)-5-isopropyl-3-phenyl-4-[(phenylamino)carbonyl]-pyrrol-1-yl]-3,5-dihydroxy-1-heptanoic acid calcium salt], it took 0.0123 nM to reach half-maximal inhibition (IC50).
`CC(C)c1c(C(=O)Nc2ccccc2)c(-c2ccccc2)c(-c2ccc(F)c(F)c2)n1CC[C@@H](O)C[C@@H](O)CC(=O)O` [Compound No. 13, (3R,5R)-7-[2-(3,4-Difluorophenyl)-5-isopropyl-3-phenyl-4-[(phenylamino)carbonyl]-pyrrol-1-yl]-3,5-dihydroxy-1-heptanoic acid calcium salt] came in with an IC50 of 0.00625 nM.
Take `Cc1ccc(-c2c(C(=O)Nc3ccccc3)c(C(C)C)n(CC[C@@H](O)C[C@@H](O)CC(=O)O)c2-c2ccc(F)cc2)cc1` [Compound No. 17, (3R,5R)-7-[2-(4-Fluorophenyl)-5-isopropyl-3-(4-methylphenyl)-4-[(phenylamino)carbonyl]-pyrrol-1-yl]-3,5-dihydroxy-1-heptanoic acid calcium salt]: half-maximal inhibition (IC50) was put at 0.034 nM.
For `CC(C)c1c(C(=O)Nc2ccccc2)c(-c2ccc(C(F)(F)F)cc2)c(-c2ccc(F)cc2)n1CC[C@@H](O)C[C@@H](O)CC(=O)O` [Compound No. 18, (3R,5R)-7-[2-(4-Fluorophenyl)-5-isopropyl-3-(4-trifluoromethylphenyl)-4-[(phenylamino)carbonyl]-pyrrol-1-yl]-3,5-dihydroxy-1-heptanoic acid calcium salt] the value was 0.0126 nM; for `O=C(O)C[C@H](O)C[C@H](O)CCn1c(-c2ccc(F)cc2)c(-c2ccccc2)c(C(=O)Nc2ccccc2)c1C1CC1` [Compound No. 19, (3R,5R)-7-[2-(4-Fluorophenyl)-5-cyclopropyl-3-phenyl-4-[(phenylamino)carbonyl]-pyrrol-1-yl]-3,5-dihydroxy-1-heptanoic acid calcium salt], 0.0124 nM; for `CC(C)c1nc(N(C)S(C)(=O)=O)nc(-c2ccc(F)cc2)c1/C=C/[C@@H](O)C[C@@H](O)CC(=O)O` [Rosuvastatin, reference compound], 0.0385 nM.
“(3R,5R)-7-[2,3-Di-(4-fluorophenyl)-5-isopropyl-4-[(phenylamino) carbonyl]-pyrrol-1-yl]-3,5-dihydroxy-1-heptanoic acid calcium salt [Compound No. 16]”: it took 0.0345 nM to reach half-maximal inhibition (IC50).
For the compound “(3R,5R)-7-[2-(4-Fluorophenyl)-5-isopropyl-3-(2,4-difluorophenyl)-4-[(phenylamino)carbonyl]-1H-pyrrol-3,5-dihydroxy-1-heptanoic acid calcium salt [Compound No. 15]”, 0.0122 nM corresponded to half-maximal inhibition (IC50).
In the case of “(3R,5R)-7-[2-(4-Fluorophenyl)-5-isopropyl-3-phenyl-4-[(3-fluorophen ylamino)carbonyl]-pyrrol-1-yl]-3,5-dihydroxy 1-heptanoic acid calcium salt [Compound No. 3]”, the IC50 is 0.0239 nM.
“(3R,5R)-7-[2-(4-Fluorophenyl)-5-isopropyl-3-phenyl-4-[(4-fluorophenylamino)carbonyl]-pyrrol-1-yl]-3,5-dihydroxy-1-heptanoic acid calcium salt [Compound No. 4]” had an IC50 of 0.0098 nM.
With “(3R,5R)-7-[2-(4-Fluorophenyl)-5-isopropyl-3-phenyl-4-[(pyridin-2-yl-amino)carbonyl]pyrrol-1-yl]-3,5-dihydroxy-1-heptanoic acid calcium salt [Compound No. 5]”, the IC50 is 0.0195 nM.
